Experimental data as given in publication PMC3038857, “Using Nuclear Receptor Activity to Stratify Hepatocarcinogens” (PLoS ONE, 2011).

How the values were obtained:
PXR (NR1I2) = target: T1, PXR (NR1I2) (Homo sapiens, UniProt O75469); assay: ATG_PXRE_CIS: Factorial reporter gene assay (HepG2); assay type: cell-based; parameters: endogenous in cells; host or cells: HepG2
T1 sequence (O75469 1-434): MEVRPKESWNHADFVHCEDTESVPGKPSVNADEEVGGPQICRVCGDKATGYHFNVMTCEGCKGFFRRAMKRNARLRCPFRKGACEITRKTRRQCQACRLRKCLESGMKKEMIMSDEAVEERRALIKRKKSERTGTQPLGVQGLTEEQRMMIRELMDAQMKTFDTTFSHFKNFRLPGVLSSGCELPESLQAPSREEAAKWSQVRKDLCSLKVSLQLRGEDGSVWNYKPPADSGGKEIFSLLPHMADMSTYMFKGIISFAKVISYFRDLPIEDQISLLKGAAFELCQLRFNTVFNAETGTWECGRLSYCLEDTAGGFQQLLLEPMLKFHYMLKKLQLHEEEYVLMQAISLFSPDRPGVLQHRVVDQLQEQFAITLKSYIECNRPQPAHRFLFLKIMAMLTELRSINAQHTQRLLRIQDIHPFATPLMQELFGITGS
In short: (§1)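 Seven concentrations per chemical, three-fold dilutions down from the MTC, were tested in HepG2 hepatoma cells. Those cells carried a multiple reporter transcription unit library, read either as cis transcription-factor-site reporters or as a trans mammalian one-hybrid panel for nuclear receptors.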

[1] = target: T2, PPARA (peroxisome proliferator-activated receptor alpha) (Homo sapiens, UniProt Q07869); assay: ATG_PPARa_TRANS: Factorial reporter gene assay (HepG2); assay type: cell-based; parameters: scale not given here
T2 construct: expressed in transfected cells; host or cells: HepG2
T2 sequence (Q07869 1-468): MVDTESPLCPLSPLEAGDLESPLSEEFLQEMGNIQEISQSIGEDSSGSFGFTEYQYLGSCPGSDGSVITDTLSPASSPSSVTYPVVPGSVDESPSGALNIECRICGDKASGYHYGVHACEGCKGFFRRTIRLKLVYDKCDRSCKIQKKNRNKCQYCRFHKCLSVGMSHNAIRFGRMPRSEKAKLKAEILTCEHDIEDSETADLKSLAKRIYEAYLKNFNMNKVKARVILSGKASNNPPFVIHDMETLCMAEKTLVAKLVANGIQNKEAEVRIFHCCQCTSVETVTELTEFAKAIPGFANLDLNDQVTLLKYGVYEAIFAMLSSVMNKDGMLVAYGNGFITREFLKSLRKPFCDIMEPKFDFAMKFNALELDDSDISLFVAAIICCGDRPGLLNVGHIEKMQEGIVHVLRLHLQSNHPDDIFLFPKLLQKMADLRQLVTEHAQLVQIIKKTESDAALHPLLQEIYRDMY
Experimental: (§2) A multiple reporter transcription unit (MRTU) library consisting of 48 transcription factor binding sites was transfected into the HepG2 human liver hepatoma cell line. In addition to the cis-acting reporter genes (CIS), a modification of the approach was used to generate a trans-system (TRANS) with a mammalian one-hybrid assay consisting of an additional 25 MRTU library reporting the activity of nuclear receptor super-family members. […] These assays were performed by Attagene Inc. (Morrisville NC) under contract to EPA.
(§3) In addition to the cis-acting reporter genes (CIS), a modification of the approach was used to generate a trans-system (TRANS) with a mammalian one-hybrid assay consisting of an additional 25 MRTU library reporting the activity of nuclear receptor super-family members. […] Chemicals were then tested in the CIS and TRANS assays at seven concentrations starting at the MTC and followed by three-fold serial dilutions. These assays were performed by Attagene Inc. (Morrisville NC) under contract to EPA. Detailed description of the methods, data and analysis methods for this dataset will be presented in a separate publication.

Rat Liver [2] = conditions: chronic study, rat liver; ref ToxRefDB; cited from earlier work
ABCB11 = assay: CLZD_ABCB11: Change in expression of ABCB11 (primary human hepatocytes); assay type: cell-based; conditions: 24 hr
Experimental: This is a collection of multiplexed gene expression assays focused on Phase I and II xenobiotic metabolizing enzymes and transporters. Human primary cell cultures were treated with chemicals at 5 concentrations (0.004-40 [drawing 42] M) for 6, 24 and 48 hr. Concentration- and time-response profiles of chemicals were measured by the expression of key nuclear receptor target genes, activities of CYP1A enzymes (EROD), and cell morphology. Fourteen gene targets were monitored by quantitative nuclease protection assay including: six representative cytochrome P-450 genes, four hepatic transporters, three Phase II conjugating enzymes, and one endogenous metabolism gene involved in cholesterol synthesis. The target genes associated with nuclear receptor pathways are as follows: [drawing 43] and [drawing 44] with [drawing 45]; [drawing 46] , [drawing 47] , [drawing 48] , [drawing 49] , [drawing 50] and [drawing 51] with [drawing 52]; [drawing 53] , [drawing 54] , [drawing 55] and [drawing 56] with [drawing 57]; [drawing 58] with [drawing 59]; and [drawing 60] with [drawing 61] . Assays were run in primary human hepatocyte cultures by CellzDirect Invitrogen Inc. (Durham, NC), in collaboration with EPA.
Multiplexed Gene Expression in Human Primary Hepatocytes: This is a collection of multiplexed gene expression assays focused on Phase I and II metabolic enzymes and transporters. […] Fourteen gene targets were monitored by quantitative nuclease protection assay: six representative cytochrome P450 genes, four hepatic transporters, three Phase II conjugating enzymes, and one endogenous metabolism gene involved in cholesterol synthesis. Cells were exposed at 5 concentrations (0.004-40 µM) for 6, 24 or 48 hr. Gene targets are sentinels for five nuclear receptor signaling pathways: AhR, CAR, PXR, FXR, and PPARα. All gene are associated with nuclear receptor pathways: CYP1A1 and CYP1A2 with AHR; ABCB1, ABCG2, CYP2B6, CYP2C9, CYP2C19 and UGT1A1 with CAR; CYP3A4, GSTA2, SLCO1B1 and SULT2A1 with PXR; HMGCS2 with PPARA; and ABCB11 with FXR. […] Detailed description of the methods, data and analysis methods for this dataset will be presented in a separate publication.

[3] = target: T3, PPARG (peroxisome proliferator-activated receptor gamma) (Homo sapiens, UniProt P37231); assay: ATG_PPARg_TRANS: Factorial reporter gene assay (HepG2); assay type: cell-based; conditions: HepG2 reporter
T3 construct: expressed in transfected cells; host or cells: HepG2
T3 sequence (P37231 1-505): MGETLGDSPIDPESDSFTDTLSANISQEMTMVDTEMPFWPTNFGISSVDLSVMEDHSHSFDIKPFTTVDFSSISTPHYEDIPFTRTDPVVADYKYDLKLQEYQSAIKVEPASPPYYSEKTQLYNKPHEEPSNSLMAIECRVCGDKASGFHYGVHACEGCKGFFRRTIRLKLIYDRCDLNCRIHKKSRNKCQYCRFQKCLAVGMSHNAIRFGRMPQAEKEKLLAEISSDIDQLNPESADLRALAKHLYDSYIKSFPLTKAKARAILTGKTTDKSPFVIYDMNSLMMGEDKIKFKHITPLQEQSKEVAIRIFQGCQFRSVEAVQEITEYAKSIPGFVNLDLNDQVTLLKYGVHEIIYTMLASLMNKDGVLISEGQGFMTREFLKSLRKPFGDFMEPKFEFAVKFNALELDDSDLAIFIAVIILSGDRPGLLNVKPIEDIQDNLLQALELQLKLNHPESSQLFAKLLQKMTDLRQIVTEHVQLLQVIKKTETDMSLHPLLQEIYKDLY
In short: as §1

CAR (NR1I3) = target: T4, CAR (NR1I3) (Homo sapiens, UniProt Q14994); assay: ATG_PBREM_CIS: Factorial reporter gene assay (HepG2); assay type: cell-based; parameters: endogenous in cells; host or cells: HepG2; conditions: HepG2 reporter
T4 sequence (Q14994 1-352): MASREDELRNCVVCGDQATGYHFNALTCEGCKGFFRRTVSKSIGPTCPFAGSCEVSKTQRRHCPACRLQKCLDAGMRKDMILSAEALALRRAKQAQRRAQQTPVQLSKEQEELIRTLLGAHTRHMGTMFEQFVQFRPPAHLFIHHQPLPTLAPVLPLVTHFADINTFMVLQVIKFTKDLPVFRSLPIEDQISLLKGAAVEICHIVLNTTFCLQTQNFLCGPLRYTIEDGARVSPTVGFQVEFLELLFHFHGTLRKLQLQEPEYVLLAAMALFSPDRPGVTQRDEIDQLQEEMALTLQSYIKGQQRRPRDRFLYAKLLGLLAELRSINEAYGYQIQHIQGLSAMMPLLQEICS
Experimental: as §2, §3

[4] = target: T5, ESR1 (estrogen receptor 1) (Homo sapiens, UniProt P03372); assay: ATG_ERa_TRANS: Factorial reporter gene assay (HepG2); assay type: cell-based; conditions: HepG2 reporter
T5 construct: expressed in transfected cells; host or cells: HepG2
Experimental: as §2, §3

Rat Liver [5] = conditions: chronic study, rat liver; ref ToxRefDB; cited from earlier work; remark: listed apart in the source
Rat Liver [6] = conditions: chronic study, rat liver; ref ToxRefDB; cited from earlier work; remark: listed apart in the source
[7] = target: T5, ESR1 (estrogen receptor 1); assay: ATG_ERE_CIS: Factorial reporter gene assay (HepG2); assay type: cell-based; conditions: HepG2 reporter
Experimental: as §2, §3

ERa (ESR1) = target: T6, ERa (ESR1) (Homo sapiens, UniProt P03372); assay: NCGC_ERalpha_Antagonist: GAL4 BLAM Reporter gene assay: ERa; assay type: cell-based; conditions: antagonist mode
T6 construct: expressed in transfected cells; host or cells: HEK293
T6 sequence (P03372 whole entry, the tested form may be a part): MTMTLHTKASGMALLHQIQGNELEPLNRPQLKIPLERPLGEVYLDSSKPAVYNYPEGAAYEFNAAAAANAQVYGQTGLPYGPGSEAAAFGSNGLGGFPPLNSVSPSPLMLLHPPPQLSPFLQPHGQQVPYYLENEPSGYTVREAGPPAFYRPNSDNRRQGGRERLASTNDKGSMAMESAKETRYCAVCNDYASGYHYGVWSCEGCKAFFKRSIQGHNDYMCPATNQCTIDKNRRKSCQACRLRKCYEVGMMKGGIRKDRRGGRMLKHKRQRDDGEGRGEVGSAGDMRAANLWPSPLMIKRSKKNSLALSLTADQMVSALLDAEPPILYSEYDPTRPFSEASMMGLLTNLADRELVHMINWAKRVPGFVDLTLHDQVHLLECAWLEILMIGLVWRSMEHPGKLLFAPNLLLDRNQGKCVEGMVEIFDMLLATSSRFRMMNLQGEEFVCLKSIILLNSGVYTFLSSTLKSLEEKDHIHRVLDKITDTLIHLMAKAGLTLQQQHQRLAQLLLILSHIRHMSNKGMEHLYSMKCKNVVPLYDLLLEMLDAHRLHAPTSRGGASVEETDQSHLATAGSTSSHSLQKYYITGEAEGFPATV

T5 sequence (P03372 whole entry): as the sequence (P03372 whole entry, the tested form may be a part) above

| SMILES | ATG_PXRE_CIS (PXR (NR1I2); HepG2) | ATG_PPARa_TRANS [1] | CHR_Rat_Liver_2_PreneoplasticLesion (Rat Liver [2]) | CLZD_ABCB11_24 (ABCB11) | ATG_PPARg_TRANS [3] | ATG_PBREM_CIS (CAR (NR1I3)) | ATG_ERa_TRANS [4] | CHR_Rat_Liver_1_AnyLesion (Rat Liver [5]) | ATG_PXRE_CIS (PXR (NR1I2); HepG2 reporter) | CHR_Rat_Liver_3_NeoplasticLesion (Rat Liver [6]) | ATG_ERE_CIS [7] | NCGC_ERalpha_Antagonist (ERa (ESR1)) |
| --- | --- | --- | --- | --- | --- | --- | --- | --- | --- | --- | --- | --- |
| O=C(O)C(F)(F)C(F)(F)C(F)(F)C(F)(F)C(F)(F)C(F)(F)C(F)(F)F [r241] | 4.367 | 4.377 | – | – | – | – | – | – | – | – | – | – |
| CC(C)(C)c1ccc(CSc2cnn(C(C)(C)C)c(=O)c2Cl)cc1 [r272] | – | – | 0 | 5.168 | 4.854 | 5.699 | 4.367 | 0 | 5.444 | 0 | 4.959 | 5.155 |
